Source: US12157741B2, “Macrocyclic inhibitors of DYRK1A” (DANA-FARBER CANCER INSTITUTE, INC., priority 2018, dated 2024)
Like-named read-outs stand apart in the source and are kept apart here.

Tests used:
various enzymes [1] = molecular target: T1, various enzymes (Homo sapiens, UniProt O14757); conditions: CHEK1; 1 uM
T1 sequence (O14757 1-476): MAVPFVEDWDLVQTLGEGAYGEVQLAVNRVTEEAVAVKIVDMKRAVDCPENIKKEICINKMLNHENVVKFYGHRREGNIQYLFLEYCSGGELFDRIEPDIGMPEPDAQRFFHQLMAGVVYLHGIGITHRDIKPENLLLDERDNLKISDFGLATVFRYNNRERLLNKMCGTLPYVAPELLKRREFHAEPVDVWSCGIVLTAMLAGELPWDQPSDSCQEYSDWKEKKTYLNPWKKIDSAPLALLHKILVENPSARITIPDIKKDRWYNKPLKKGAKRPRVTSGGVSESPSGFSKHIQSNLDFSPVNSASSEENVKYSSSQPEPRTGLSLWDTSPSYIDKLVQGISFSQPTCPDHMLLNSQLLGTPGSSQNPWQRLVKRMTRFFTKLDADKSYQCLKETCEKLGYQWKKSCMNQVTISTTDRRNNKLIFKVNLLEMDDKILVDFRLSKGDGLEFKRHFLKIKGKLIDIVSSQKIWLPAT
Description: (§1) Ambit profiling from Eurofins (formerly Discoverx) was conducted in accordance with the manufacturer's instructions.

various enzymes [2] = molecular target: various enzymes (Homo sapiens, UniProt O60331); conditions: PIP5K1C; 1 uM
Description: as §1

various enzymes [3] = molecular target: various enzymes (Homo sapiens, UniProt P00533, DEL752-759); conditions: EGFR(S752-I759del); 1 uM
Description: as §1

various enzymes [4] = molecular target: various enzymes (Homo sapiens, UniProt P08581, Y1235D)
Description: as §1

various enzymes [5] = molecular target: T2, various enzymes (Homo sapiens, UniProt P36888); conditions: FLT3(ITD); 1 uM
T2 sequence (P36888 1-993): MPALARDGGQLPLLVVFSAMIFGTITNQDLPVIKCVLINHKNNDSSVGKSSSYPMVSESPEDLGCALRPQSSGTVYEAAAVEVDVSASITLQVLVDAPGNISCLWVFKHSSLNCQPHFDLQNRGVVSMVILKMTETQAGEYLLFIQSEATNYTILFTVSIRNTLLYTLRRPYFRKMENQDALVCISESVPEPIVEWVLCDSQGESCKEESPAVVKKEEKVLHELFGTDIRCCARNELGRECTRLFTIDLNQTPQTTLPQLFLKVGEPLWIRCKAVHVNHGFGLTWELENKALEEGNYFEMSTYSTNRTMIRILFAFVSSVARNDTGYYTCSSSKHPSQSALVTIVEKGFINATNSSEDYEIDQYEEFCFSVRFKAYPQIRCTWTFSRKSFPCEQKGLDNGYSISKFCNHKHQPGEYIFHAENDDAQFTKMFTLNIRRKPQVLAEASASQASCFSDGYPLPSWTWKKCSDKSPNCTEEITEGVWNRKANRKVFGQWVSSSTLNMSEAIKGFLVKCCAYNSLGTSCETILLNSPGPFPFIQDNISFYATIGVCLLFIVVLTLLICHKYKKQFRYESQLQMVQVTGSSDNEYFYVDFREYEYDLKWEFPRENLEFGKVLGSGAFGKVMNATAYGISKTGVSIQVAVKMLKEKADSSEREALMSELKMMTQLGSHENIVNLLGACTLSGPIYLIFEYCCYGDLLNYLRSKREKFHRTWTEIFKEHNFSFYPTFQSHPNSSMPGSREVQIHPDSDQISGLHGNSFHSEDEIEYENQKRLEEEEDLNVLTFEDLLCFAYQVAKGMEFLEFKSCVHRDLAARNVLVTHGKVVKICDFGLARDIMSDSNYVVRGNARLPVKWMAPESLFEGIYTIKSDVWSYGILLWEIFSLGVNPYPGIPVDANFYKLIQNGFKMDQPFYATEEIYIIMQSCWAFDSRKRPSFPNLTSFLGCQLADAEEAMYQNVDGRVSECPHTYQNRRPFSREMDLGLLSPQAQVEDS
Description: as §1

various enzymes [6] = molecular target: various enzymes (Homo sapiens, UniProt P49336); conditions: CDK8; 1 uM
Description: as §1

various enzymes [7] = molecular target: various enzymes (Homo sapiens, UniProt Q16539); conditions: p38-alpha; 1 uM
Description: as §1

various enzymes [8] = molecular target: T3, various enzymes (Homo sapiens, UniProt Q96L34); conditions: MARK4; 1 uM
T3 sequence (Q96L34 1-752): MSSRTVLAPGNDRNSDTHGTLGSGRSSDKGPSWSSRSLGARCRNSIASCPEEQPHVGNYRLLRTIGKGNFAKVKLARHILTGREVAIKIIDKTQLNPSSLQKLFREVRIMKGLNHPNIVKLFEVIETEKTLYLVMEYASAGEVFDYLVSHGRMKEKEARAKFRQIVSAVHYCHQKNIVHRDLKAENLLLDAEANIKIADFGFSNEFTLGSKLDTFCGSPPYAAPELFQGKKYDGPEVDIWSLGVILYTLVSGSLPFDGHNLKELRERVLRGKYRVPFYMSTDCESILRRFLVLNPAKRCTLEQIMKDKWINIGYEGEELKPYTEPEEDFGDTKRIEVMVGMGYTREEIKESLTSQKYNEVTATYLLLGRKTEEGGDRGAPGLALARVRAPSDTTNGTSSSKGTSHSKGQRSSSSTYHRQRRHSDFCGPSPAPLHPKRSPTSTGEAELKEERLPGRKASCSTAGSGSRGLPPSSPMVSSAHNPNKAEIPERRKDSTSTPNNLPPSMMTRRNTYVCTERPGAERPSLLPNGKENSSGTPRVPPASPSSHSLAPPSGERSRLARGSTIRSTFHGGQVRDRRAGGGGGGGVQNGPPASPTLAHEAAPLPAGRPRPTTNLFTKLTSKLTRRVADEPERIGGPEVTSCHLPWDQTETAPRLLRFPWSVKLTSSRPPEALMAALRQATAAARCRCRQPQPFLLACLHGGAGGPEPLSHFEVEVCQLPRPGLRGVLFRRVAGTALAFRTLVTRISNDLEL
Description: as §1

various enzymes [9] = molecular target: various enzymes (Homo sapiens, UniProt Q9HCP0); conditions: CSNK1G1; 1 uM
Description: as §1

various enzymes [10] = molecular target: various enzymes (Homo sapiens, UniProt Q9Y2K2); conditions: QSK; 1 uM
Sequence of various enzymes (Homo sapiens, UniProt Q9Y2K2) (Q9Y2K2 whole entry): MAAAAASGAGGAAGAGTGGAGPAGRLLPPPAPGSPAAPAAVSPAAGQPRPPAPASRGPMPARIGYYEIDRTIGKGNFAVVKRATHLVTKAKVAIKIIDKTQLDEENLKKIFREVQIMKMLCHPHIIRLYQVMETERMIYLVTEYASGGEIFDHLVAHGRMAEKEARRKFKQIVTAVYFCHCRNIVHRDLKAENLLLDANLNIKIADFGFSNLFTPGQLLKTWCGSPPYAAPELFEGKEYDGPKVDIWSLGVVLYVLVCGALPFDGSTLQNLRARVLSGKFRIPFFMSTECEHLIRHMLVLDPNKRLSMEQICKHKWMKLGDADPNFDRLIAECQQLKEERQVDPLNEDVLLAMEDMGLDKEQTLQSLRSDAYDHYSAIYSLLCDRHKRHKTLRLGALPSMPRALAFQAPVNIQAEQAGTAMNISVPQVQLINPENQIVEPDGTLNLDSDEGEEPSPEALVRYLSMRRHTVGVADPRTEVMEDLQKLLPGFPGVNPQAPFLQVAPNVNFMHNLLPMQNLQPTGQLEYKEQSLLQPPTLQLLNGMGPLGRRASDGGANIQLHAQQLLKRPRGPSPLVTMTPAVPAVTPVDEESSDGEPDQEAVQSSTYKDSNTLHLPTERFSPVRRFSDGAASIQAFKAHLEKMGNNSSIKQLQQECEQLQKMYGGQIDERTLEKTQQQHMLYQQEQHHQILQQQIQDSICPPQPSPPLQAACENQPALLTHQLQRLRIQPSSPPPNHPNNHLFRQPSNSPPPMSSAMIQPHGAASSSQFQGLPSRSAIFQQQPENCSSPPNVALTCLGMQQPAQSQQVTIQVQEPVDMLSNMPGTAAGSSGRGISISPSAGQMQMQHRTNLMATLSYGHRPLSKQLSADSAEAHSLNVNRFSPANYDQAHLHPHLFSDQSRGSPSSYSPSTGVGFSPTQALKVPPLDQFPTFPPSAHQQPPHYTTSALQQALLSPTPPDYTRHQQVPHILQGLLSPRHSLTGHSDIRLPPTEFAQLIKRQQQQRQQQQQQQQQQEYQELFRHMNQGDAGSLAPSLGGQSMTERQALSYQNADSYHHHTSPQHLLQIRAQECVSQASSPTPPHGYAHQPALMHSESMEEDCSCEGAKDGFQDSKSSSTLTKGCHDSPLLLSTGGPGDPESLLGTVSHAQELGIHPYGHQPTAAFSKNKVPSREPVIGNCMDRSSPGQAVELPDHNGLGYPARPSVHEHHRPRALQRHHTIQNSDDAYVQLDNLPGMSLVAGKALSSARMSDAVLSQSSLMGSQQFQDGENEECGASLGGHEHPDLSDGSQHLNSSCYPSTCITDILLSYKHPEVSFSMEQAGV
Description: as §1

Sequence of various enzymes (Homo sapiens, UniProt Q16539) (Q16539 whole entry): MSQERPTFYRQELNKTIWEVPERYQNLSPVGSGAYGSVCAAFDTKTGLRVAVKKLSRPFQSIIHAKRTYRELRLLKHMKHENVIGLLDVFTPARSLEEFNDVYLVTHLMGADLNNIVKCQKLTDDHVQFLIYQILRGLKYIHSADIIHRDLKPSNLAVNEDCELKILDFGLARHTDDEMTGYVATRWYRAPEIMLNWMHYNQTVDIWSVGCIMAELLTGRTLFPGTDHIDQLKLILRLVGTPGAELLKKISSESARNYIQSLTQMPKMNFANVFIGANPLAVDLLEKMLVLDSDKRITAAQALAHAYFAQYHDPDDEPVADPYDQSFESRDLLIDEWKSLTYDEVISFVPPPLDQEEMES
Sequence of various enzymes (Homo sapiens, UniProt O60331) (O60331 whole entry): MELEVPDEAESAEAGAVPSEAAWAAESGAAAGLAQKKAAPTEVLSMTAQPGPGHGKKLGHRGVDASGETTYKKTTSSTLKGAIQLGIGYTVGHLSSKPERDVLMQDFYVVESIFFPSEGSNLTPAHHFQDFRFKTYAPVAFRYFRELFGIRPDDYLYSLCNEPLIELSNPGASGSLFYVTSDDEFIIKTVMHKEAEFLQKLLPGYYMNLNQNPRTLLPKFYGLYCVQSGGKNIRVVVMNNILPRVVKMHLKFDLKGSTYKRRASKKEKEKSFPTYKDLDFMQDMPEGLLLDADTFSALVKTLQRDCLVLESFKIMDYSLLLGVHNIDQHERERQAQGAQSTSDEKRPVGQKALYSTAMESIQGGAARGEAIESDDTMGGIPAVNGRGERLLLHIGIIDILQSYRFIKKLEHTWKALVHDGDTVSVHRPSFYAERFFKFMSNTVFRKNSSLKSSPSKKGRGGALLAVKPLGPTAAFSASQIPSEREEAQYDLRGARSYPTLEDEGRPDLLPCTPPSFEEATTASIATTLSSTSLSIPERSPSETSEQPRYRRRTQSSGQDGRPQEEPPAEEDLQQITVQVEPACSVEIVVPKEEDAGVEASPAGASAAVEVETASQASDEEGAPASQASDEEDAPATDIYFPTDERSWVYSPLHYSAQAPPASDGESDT
Sequence of various enzymes (Homo sapiens, UniProt P49336) (P49336 whole entry): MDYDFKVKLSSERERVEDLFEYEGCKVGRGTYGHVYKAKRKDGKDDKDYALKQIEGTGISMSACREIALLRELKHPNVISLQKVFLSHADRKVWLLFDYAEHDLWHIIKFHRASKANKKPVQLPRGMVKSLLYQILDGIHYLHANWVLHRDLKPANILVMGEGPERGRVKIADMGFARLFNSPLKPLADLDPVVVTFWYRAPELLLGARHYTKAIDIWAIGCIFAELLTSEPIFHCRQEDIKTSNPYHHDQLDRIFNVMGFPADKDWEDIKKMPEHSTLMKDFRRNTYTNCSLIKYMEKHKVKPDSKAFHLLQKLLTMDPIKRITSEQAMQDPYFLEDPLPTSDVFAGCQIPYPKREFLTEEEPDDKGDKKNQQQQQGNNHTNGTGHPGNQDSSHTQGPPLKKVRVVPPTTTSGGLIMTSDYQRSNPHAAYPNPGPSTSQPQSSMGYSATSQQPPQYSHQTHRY
Sequence of various enzymes (Homo sapiens, UniProt Q9HCP0) (Q9HCP0 whole entry): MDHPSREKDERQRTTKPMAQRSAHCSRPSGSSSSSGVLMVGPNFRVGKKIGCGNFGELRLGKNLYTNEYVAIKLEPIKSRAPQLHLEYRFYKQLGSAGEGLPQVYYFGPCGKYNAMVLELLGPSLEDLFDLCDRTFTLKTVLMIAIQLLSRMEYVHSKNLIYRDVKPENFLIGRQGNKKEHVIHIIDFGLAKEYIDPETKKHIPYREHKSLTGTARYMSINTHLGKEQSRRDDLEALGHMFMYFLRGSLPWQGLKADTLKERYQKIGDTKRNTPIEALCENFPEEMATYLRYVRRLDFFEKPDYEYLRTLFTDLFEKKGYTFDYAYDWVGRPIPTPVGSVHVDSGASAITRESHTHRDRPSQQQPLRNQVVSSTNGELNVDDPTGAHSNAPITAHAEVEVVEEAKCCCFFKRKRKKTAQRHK

SMILES	Ambit profiling (various enzymes [1])	Ambit profiling (various enzymes [2])	Ambit profiling (various enzymes [3])	Ambit profiling (various enzymes [4]; MET(Y12350), 1 uM)	Ambit profiling (various enzymes [5])	Ambit profiling (various enzymes [6])	Ambit profiling (various enzymes [7])	Ambit profiling (various enzymes [8])	Ambit profiling (various enzymes [9])	Ambit profiling (various enzymes [10])	Ambit profiling (various enzymes [4])
CN1Cc2nn(C)cc2-c2cnc3[nH]cc(c3c2)-c2cnn(c2)CCCC1=O [Compound 41, (Z)-31,5-dimethyl-11H,21H,31H-5-aza-2(3,5)-pyrrolo[2,3-b]pyridina-1(4,1),3(4,3)-dipyrazolacyclononaphan-6-one]	100	20	100	44	0.15	100	99	27	84	89	
CN1Cc2nn(C)c(C#N)c2-c2cnc3[nH]cc(c3c2)-c2cn(nc2C(F)(F)F)CCCC1=O [Compound 48, (Z)-31,5-dimethyl-6-oxo-13-(trifluoromethyl)-11H,21H,31H-5-aza-2(3,5)-pyrrolo[2,3-b]pyridina-1(4,1),3(4,3)-dipyrazolacyclononaphane-35-carbonitrile]	93	38	77		21	100	95	92	100	100	51
